Read-outs that look alike come from different tables or passages of the source.
How the values were obtained:
[1] = tested on: Serratia marcescens BM 20 (VIM-2); assay: MIC, broth microdilution and checkerboard assay; type: cell-based
Procedure: (§1) The Minimum Inhibitory Concentration (MIC) of meropenem BP2 was determined utilizing the broth microdilution assay, as described by the Clinical and Laboratory Standards Institute (CLSI) antimicrobial susceptibility guidelines. The mono-therapeutic effect of each antibiotic and MBLI was evaluated across a panel of MBL-producing Enterobacterales.
(§2) The drug susceptibility profile of meropenem in combination with BP2 was studied using the checkerboard assay. This assay was used to ascertain the effect of two drugs on antimicrobial resistance targeting CRE strains. The assay was performed according to the protocol described previously and was under CLSI antimicrobial susceptibility guidelines. Briefly, twofold dilutions of meropenem with each chelator were made in Cation-adjusted Mueller Hinton Broth (CAMHB) in a 96-well microtiter plate. A 0.5 McFarland-standardized bacterial inoculum was added to each well to obtain a final volume of 100 µL per well. Thereafter, plates were incubated at 37 °C for 18 h under aerobic conditions. The checkerboard assays were performed in triplicate. The MIC was determined as the lowest concentration at which no visible growth was present. The fractional inhibitory concentration index (FICI) was calculated for each combination according to the equation FICI = FICa (MIC of drug A in combination/MIC of drug A alone) + FICb (MIC of drug B in combination/MIC of drug B alone). The FICI was interpreted as follows: synergy, FICI ≤ 0.5; additive 0.5–1; indifference, […] FICI < 4; and antagonism, FICI ≥ 4 [61].

[2] = tested on: Klebsiella pneumoniae ENNES (VIM-1); assay: MIC, broth microdilution and checkerboard assay; type: cell-based
Procedure: as §1, §2

[3] = tested on: Escherichia coli TWA (IMP-8); assay: MIC, broth microdilution and checkerboard assay; type: cell-based
Procedure: as §1, §2

[4] = tested on: Providencia stuartii PSTU (NDM-1); assay: MIC, broth microdilution and checkerboard assay; type: cell-based
Procedure: as §1, §2

[5] = tested on: Klebsiella pneumoniae DIH (VIM-19); assay: MIC, broth microdilution and checkerboard assay; type: cell-based
Procedure: as §1, §2

[6] = tested on: Escherichia coli FEK (NDM-4); assay: MIC, broth microdilution and checkerboard assay; type: cell-based
Procedure: as §1, §2

[7] = tested on: Enterobacter cloacae KAR (VIM-1); assay: MIC, broth microdilution and checkerboard assay; type: cell-based
Procedure: as §1, §2

[8] = tested on: Providencia Rettgeri IR38 (NDM-1); assay: MIC, broth microdilution and checkerboard assay; type: cell-based
Procedure: as §1, §2

[9] = Plasma drug concentrations in the in vivo efficacy study; settings: male, mouse, 100 mg/kg IP every two hours, infected BALB/c mice
Procedure: A murine thigh infection model described by Michail et al. was performed with minor modifications. Male Bragg inbred albino c-strain (BALB/c) mice weighing 20–25 g (n = 90) were used in this study. Each of the three groups constituted n = 30 mice, with n = 6 mice receiving treatment every two hours. Prior to infection, mice were IP treated with 150 mg/kg cyclophosphamide on day one and 100 mg/kg on day four of the trial. This was performed to induce neutropenia in the mice. Neutropenia was confirmed by a neutrophil count of <100/mm^3. On day five of the trial, 0.1 mL inoculum containing 10^6–10^8 cfu/mL of K. pneumoniae NDM were IM injected into the right thigh of the mice to initiate infection. Meropenem monotherapy, BP2 + meropenem combination therapy, or normal saline was administered every two hours in an eight-hour treatment period. Mice were euthanized by isoflurane overdose at 2 h, 4 h, 6 h and 8 h post dosing. The right thigh muscle was then aseptically removed and homogenized in 5 mL PBS. Homogenates were spread onto Mueller–Hinton agar and MacConkey agar plates, followed by incubation at 35 °C for 24 h and enumeration of the cfu/mL.
A Shimadzu Nexera Series (Shimadzu Corporation, Kyoto, Japan) liquid chromatography system was coupled with Shimadzu LCMS-8050 tandem mass spectrometer (Shimadzu, Kyoto, Japan). The chromatographic separation was achieved using a Shim-Pack Velox SP-C18 column (100 mm × 2.1 mm, 2.7 µm particle size) with a gradient mobile phase comprised of Millipore water (0.1% v/v trifluoroacetic acid) (A) and Acetonitrile (0.1% v/v trifluoroacetic acid) (B). The gradient method started from 5 to 95% B in 8 min, then held at 95% B for up to 12 min; thereafter, it was brought back to 5% B at 12.1 min. The column was equilibration time was 2.9 min with a flow rate of 0.4 mL min^−1 and the column oven temperature at 40 °C. The injection volume was 25 µL, and the total run time of the method was 15 min. Quantitative and qualitative studies were conducted using MRM mode via an ESI interface, with the following source parameters: nitrogen nebulizer gas flow 3 L/min; heat gas 10 L/min and interface temperature of 300 °C. The precursor and product ions optimized were m/z 813.2→330.0 for BP2, m/z 384.50→68.25 for meropenem and m/z 350.50→304.40 for Ampicillin (IS). Results were analyzed using LabSolutions Insight LCMS. All data are expressed as a mean ± SD.
Figure 6 Plasma BP2 and meropenem concentrations over the eight-hour treatment period. BALB/c mice were infected intramuscularly (IM) in the right thigh with 10^6–10^8 K. pneumoniae NDM cfu/mL. Treatment was initiated two hours post infection with either S, M, or BP2. Four treatment doses were administered via intraperitoneal (IP) injection every two hours. Data are presented as a mean ± SD (n = 6). Meropenem-only (red triangle)—animals treated with meropenem only, Meropenem with BP2 (red circles)—meropenem concentration when animals were treated with the BP2 combination. BP2 with meropenem (green square)—concentration of BP2 when animals were treated with the meropenem combination.

[10] = Single-dose pharmacokinetic experiment; type: in vivo; settings: for Time of peak concentration (Cmax) after drug administration: single dose, plasma
Procedure: In order to evaluate BP2’s potential to act synergetically with antibacterial agents such as meropenem in vivo, we next performed a single-dose pharmacokinetic experiment to ensure an appropriate dosing schedule for achieving a safe and therapeutic concentration of BP2 in plasma. […] Constant concentrations were then reached after two hours. A plasma concentration of 1.93 µg/L was obtained with a dose of 10 mg/kg.b.w. This was far below the cytotoxicity concentrations seen in the cell viability assays, advocating for the safe increase in the treatment dose to 100 mg/kg.b.w, which allowed us to reach therapeutic concentrations (Figure 6) in plasma without the possibility of toxicity. In vivo efficacy studies were undertaken to assess the potency of BP2 in a murine infection model. This five-day animal trial was initiated by immune-suppressing the mice with cyclophosphamide to allow the progression of infection and allow BP2 + meropenem treatment to be studied over eight hours on day five of the trial. In addition, it excludes the effects of the innate immune response as a potential variable. This is important since many carbapenem-resistant infections are acquired as secondary infections in immune-suppressed hosts. The mice were successfully infected with Klebsiella pneumoniae NDM, evidenced by visible inflammation of the localized area; this correlated with the cfu/thigh data expressed (Tables S1–S3). Three treatment regimens of S (saline only), M (meropenem only), and BP2 combination therapy (BP2 + meropenem) were used to randomly categorize mice.
A Shimadzu Nexera Series (Shimadzu Corporation, Kyoto, Japan) liquid chromatography system was coupled with Shimadzu LCMS-8050 tandem mass spectrometer (Shimadzu, Kyoto, Japan). […] Quantitative and qualitative studies were conducted using MRM mode via an ESI interface, with the following source parameters: nitrogen nebulizer gas flow 3 L/min; heat gas 10 L/min and interface temperature of 300 °C. […] Results were analyzed using LabSolutions Insight LCMS. All data are expressed as a mean ± SD.

**Q.** Which MIC ([1]; read-out: MIC BP2 Alone) does the source give for `CON=C(C(=O)NC1C(=O)N2C(C(=O)O)=C(COC(C)=O)CSC12)c1csc(NC(=O)CC(C(=O)OC)N2CCN(CC(=O)O)CCN(CC(=O)O)CC2)n1` (stereo in doubt) [BP2] here?
**A.** > 256 µg/mL

**Q.** What about the MIC ([2]; read-out: MIC BP2 Alone) of the same compound?
**A.** > 256 µg/mL

**Q.** What about the MIC ([3]; read-out: MIC BP2 Alone) of the same compound?
**A.** > 256 µg/mL

**Q.** What about the MIC ([4]; read-out: MIC BP2 Alone) of the same compound?
**A.** > 256 µg/mL

**Q.** And the MIC ([5]; read-out: MIC BP2 Alone)?
**A.** > 256 µg/mL

**Q.** And the MIC ([6]; read-out: MIC BP2 Alone)?
**A.** > 256 µg/mL

**Q.** What about the MIC ([7]; read-out: MIC BP2 Alone) of the same compound?
**A.** > 256 µg/mL

**Q.** What about the MIC ([8]; read-out: MIC BP2 Alone) of the same compound?
**A.** > 256 µg/mL

**Q.** And the concentration at 2 h [9]?
**A.** 2670 ng/mL

**Q.** And the concentration at 4 h [9]?
**A.** 6970 ng/mL

**Q.** And the concentration at 6 h [9]?
**A.** 4430 ng/mL

**Q.** What about the concentration at 8 h [9] of the same compound?
**A.** 3490 ng/mL

**Q.** What about the Plasma concentration ([10]; dose of 10 mg/kg.b.w) of the same compound?
**A.** 1.93 ng/mL

**Q.** What about the “Time of peak concentration (Cmax) after drug administration” value [10] of the same compound?
**A.** 15 min

**Q.** For `C[C@@H](O)[C@H]1C(=O)N2C(C(=O)O)=C(S[C@@H]3CN[C@H](C(=O)N(C)C)C3)[C@H](C)[C@H]12` [Meropenem], which MIC ([1]; S. marcescens BM 20 VIM-2, alone, read-out: MIC MEM Alone) is on record?
**A.** > 32 µg/mL

**Q.** What about the MIC ([2]; K. pneumoniae ENNES VIM-1, alone, read-out: MIC MEM Alone) of the same compound?
**A.** > 32 µg/mL

**Q.** What about the MIC ([3]; E. coli TWA IMP-8, alone, read-out: MIC MEM Alone) of the same compound?
**A.** 8 µg/mL

**Q.** And the MIC ([4]; P. stuartii PSTU NDM-1, alone, read-out: MIC MEM Alone)?
**A.** 32 µg/mL

**Q.** And the MIC ([5]; K. pneumoniae DIH VIM-19, alone, read-out: MIC MEM Alone)?
**A.** 32 µg/mL

**Q.** And the MIC ([6]; E. coli FEK NDM-4, alone, read-out: MIC MEM Alone)?
**A.** > 32 µg/mL

**Q.** What about the MIC ([7]; E. cloacae KAR VIM-1, alone, read-out: MIC MEM Alone) of the same compound?
**A.** 4 µg/mL

**Q.** What about the MIC ([8]; P. Rettgeri IR38 NDM-1, alone, read-out: MIC MEM Alone) of the same compound?
**A.** 32 µg/mL

**Q.** And the concentration at 2 h [9]?
**A.** 7060 ng/mL

**Q.** What about the concentration at 4 h [9] of the same compound?
**A.** 27500 ng/mL

**Q.** And the concentration at 6 h [9]?
**A.** 14900 ng/mL

**Q.** What about the concentration at 8 h [9] of the same compound?
**A.** 8840 ng/mL

**Q.** What about the “Time of peak concentration (Cmax) after drug administration” value [10] of the same compound?
**A.** 15 min

Source: article PMC10135050, “Neutralizing Carbapenem Resistance by Co-Administering Meropenem with Novel β-Lactam-Metallo-β-Lactamase Inhibitors” (Antibiotics, 2023)
